Molecular target: benzodiazepine site of the GABAA receptor
Test: Ligand binding assay (3H-Ro15-1788 displacement, purified rat cortical membranes)
Details: previously determined; used in the Cheng-Prusoff equation; read-out: binding dissociation constant (Kd) of the radioligand

CCOC(=O)c1ncn2c1CN(C)C(=O)c1cc(F)ccc1-2 [^3H—R15-1788]
Kd: 1 nM
